According to patent US20230219951A1, “PYRIDINE-PYRIMIDINE DERIVATIVE, PREPARATION METHOD THEREFOR AND PHARMACEUTICAL USE THEREOF” (Jiangsu Hengrui Pharmaceuticals Co., Ltd., priority 2020, published 2023):

Legend:
[1] = molecular target: T1, interaction between the KRAS protein subtype G12V and the SOS1 protein (Homo sapiens, UniProt Q07889); experiment: Inhibition of the interaction between KRAS G12V and SOS1 protein (AlphaLISA/AlphaScreen); assay type: binding; settings: KRAS G12V + GST-TEV-SOS1(564-1049) + GDP
T1 construct: GST-TEV-SOS1(564-1049) (Viva Biotech, SOS1-191010); purchased SOS1: Viva Biotech; KRAS: Shanghai Panchao Biotechnology Co., Ltd. SOS1-191010
T1 sequence (Q07889 564-1049): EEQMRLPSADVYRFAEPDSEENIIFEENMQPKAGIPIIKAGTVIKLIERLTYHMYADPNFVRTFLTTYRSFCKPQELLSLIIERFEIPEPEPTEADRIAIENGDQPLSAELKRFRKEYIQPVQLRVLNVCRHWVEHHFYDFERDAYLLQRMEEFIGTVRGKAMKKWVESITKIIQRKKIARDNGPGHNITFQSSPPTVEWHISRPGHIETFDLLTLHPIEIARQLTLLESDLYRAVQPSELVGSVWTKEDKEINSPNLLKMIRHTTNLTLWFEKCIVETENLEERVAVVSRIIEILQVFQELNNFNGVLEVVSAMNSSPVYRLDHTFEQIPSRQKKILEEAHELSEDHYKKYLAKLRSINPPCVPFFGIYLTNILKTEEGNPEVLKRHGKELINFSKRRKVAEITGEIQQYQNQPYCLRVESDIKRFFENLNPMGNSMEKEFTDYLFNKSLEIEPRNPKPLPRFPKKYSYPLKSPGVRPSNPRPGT
Procedure, shortened: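 Biotinylated KRAS G12D or G12V preincubated with SOS1 and GDP, then with compound (10-point 5-fold series from 40 μM) for 30 min at room temperature in PBS, 0.1% BSA, 0.05% Tween 20. Glutathione acceptor/streptavidin donor beads added for 60 min; Alpha signal read and IC50 calculated.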

[2] = Pharmacokinetic evaluation in dogs; assay type: in vivo; settings: both sexes, dog, plasma, po, beagle dogs, intragastric administration, 2 mg/kg
Protocol: The drug concentration in the plasma of the test animals (dogs) at different time points after intragastric administration (i.g.) of compound 18-p1 was determined by using an LC/MS/MS method. The pharmacokinetic behavior in dogs of the compound of the present disclosure was studied and its pharmacokinetic profile was evaluated.
Four beagle dogs, half male and half female, fasted overnight, supplied by animal reserve bank (999M-004). All animals were beagle dogs qualified for physical examination and healthy without abnormalities.
An amount of compound 18-p1 was weighed and dissolved in 5% by volume of DMSO, 20% by volume of PG, and 20% by volume of PEG400, and then prepared into a 0.4 mg/mL clear solution with 55% normal saline.
The administration was performed at a dose of 2.0 mg/kg and a volume of 5.0 mL/kg.
The compound 18-p1 was administered intragastrically to dogs, and 1.0 mL of blood was collected from jugular vein or forelimb vein before administration and 0.25 h, 0.5 h, 1.0 h, 2.0 h, 4.0 h, 6.0 h, 8.0 h, 12.0 h and 24.0 h after administration. The blood was placed in an EDTA-K2 anticoagulation tube and centrifuged at 10,000 rpm for 5 min (4° C.), and plasma was separated out within 1 h and then stored at −80° C. for testing. The process from blood sampling to centrifugation was performed under an ice bath. Food intake was resumed 3 h after administration.
The content of the test compounds at different concentrations in plasma of dogs after administration was determined: 25 μL of plasma of dogs at each time point after administration was taken, and 200 μL of acetonitrile (containing 50 μL of internal standard solution camptothecin, 100 ng/mL) was added; the mixture was vortexed for 5 min, and centrifuged for 10 min (4000 r/min). 0.3 μL of supernatant was taken from the plasma sample for LC/MS/MS analysis.

For `Cc1nc(N[C@H](C)c2cccc(C(F)F)c2F)c2cc([C@]3(O)CC[C@@H](O)CC3)c(=O)[nH]c2n1` [Example 18-p1, 4-(((R)-1-(3-(difluoromethyl)-2-fluorophenyl)ethyl)amino)-6-((1s,4S)-1,4-dihydroxycyclohexyl)-2-methylpyrido[2,3-d]pyrimidin-7(8H)-one], the IC50 [1] was 67 nM, the Vd/F ([2]; read-out: Apparent distribution volume Vz/F) was 2.63 L/kg and the AUC(0-t) ([2]; read-out: Area under curve AUC0-t) was 4600 ng·h/mL. It also gave a CL/F ([2]; read-out: Clearance CLz/F) of 7.64 mL/min/kg, a half-life ([2]; read-out: Half-life T½ (converted)) of 3.91 h and a Cmax ([2]; read-out: Plasma concentration Cmax) of 710 ng/mL.
